The results in this text go back to ChEMBL document CHEMBL6096706, “Discovery of WDR5-MLL1 and HDAC Dual-Target Inhibitors for the Treatment of Acute Myeloid Leukemia” (J Med Chem, 2025).

In series [1] the test system is MV4-11. As to the kind of experiment: Antiproliferative activity against human MV4-11 cells assessed as growth inhibition at 0.2 uM measured after 72 hrs by CellTiterGlo assay. The format is functional. Conditions: read-out: GI.
For series [2], the system named is MV4-11. Nature of the series: Induction of apoptosis in human MV4-11 cells assessed as early apoptotic cells at 200 nmol/L incubated for 72 hrs by Annexin V/PI staining based flow cytometry analysis (reference value: 4.17 %). The format is functional.
The test system of series [3] is MV4-11. As to the kind of experiment: Antiproliferative activity against human MV4-11 cells assessed as growth inhibition at 2 uM measured after 72 hrs in presence of 0.4 uM of vorinostat by CellTiterGlo assay. The format is functional. Conditions: read-out: GI.
Series [4] deals with MV4-11. Nature of the series: Induction of apoptosis in human MV4-11 cells assessed as necrotic cells at 600 nM incubated for 72 hrs in presence of vorinostat by Annexin V/PI staining based flow cytometry analysis (reference value: 2.61%). Type of series: functional.
Series [5] deals with MV4-11. As to the kind of experiment: Induction of apoptosis in human MV4-11 cells assessed as necrotic cells at 200 nmol/L incubated for 72 hrs by Annexin V/PI staining based flow cytometry analysis (reference value: 0.46%). Type of series: functional.
The subject of series [6] is MV4-11. As to the kind of experiment: Antiproliferative activity against human MV4-11 cells assessed as growth inhibition at 1 uM measured after 72 hrs in presence of 0.5 uM of vorinostat by CellTiterGlo assay. Type of series: functional. As to conditions: read-out: GI.
Series [7] relates to MV4-11. Nature of the series: Antiproliferative activity against human MV4-11 cells assessed as growth inhibition at 0.1 uM measured after 72 hrs in presence of 0.05 uM of vorinostat by CellTiterGlo assay. Type of series: functional. Conditions: read-out: GI.
Series [8] concerns MV4-11. Nature of the series: Antiproliferative activity against human MV4-11 cells assessed as growth inhibition at 0.2 uM measured after 72 hrs in presence of 0.2 uM of vorinostat by CellTiterGlo assay. The format is functional. Conditions: read-out: GI.
For series [9], the system named is MV4-11. Nature of the series: Induction of apoptosis in human MV4-11 cells assessed as viable cells at 200 nmol/L incubated for 72 hrs by Annexin V/PI staining based flow cytometry analysis (reference value: 90.23%). Conditions: Homo sapiens, MV4-11, read-out: Activity. Type of series: functional.
Series [10] has as its system MV4-11. Nature of the series: Antiproliferative activity against human MV4-11 cells assessed as growth inhibition at 1 uM measured after 72 hrs in presence of 1 uM of vorinostat by CellTiterGlo assay. Conditions: read-out: GI. Type of series: functional.
In series [11] the test system is MV4-11. Nature of the series: Antiproliferative activity against human MV4-11 cells assessed as growth inhibition at 0.4 uM measured after 72 hrs in presence of 0.05 uM of vorinostat by CellTiterGlo assay. As to conditions: read-out: GI. The format is functional.
Series [12] concerns MV4-11. Nature of the series: Antiproliferative activity against human MV4-11 cells assessed as growth inhibition at 0.4 uM measured after 72 hrs in presence of 0.2 uM of vorinostat by CellTiterGlo assay. Type of series: functional. Conditions: read-out: GI.
The test system of series [13] is MV4-11. As to the kind of experiment: Antiproliferative activity against human MV4-11 cells assessed as growth inhibition at 1 uM measured after 72 hrs in presence of 0.2 uM of vorinostat by CellTiterGlo assay. Type of series: functional. As to conditions: read-out: GI.
The test system of series [14] is MV4-11. As to the kind of experiment: Antiproliferative activity against human MV4-11 cells assessed as growth inhibition at 1 uM measured after 72 hrs in presence of 0.05 uM of vorinostat by CellTiterGlo assay. The format is functional. As to conditions: read-out: GI.
Series [15] concerns MV4-11. Nature of the series: Induction of apoptosis in human MV4-11 cells assessed as late apoptotic cells at 200 nmol/L incubated for 72 hrs by Annexin V/PI staining based flow cytometry analysis (reference value: 5.14%). Type of series: functional.
Series [16] has as its system MV4-11. Nature of the series: Antiproliferative activity against human MV4-11 cells assessed as growth inhibition at 0.5 uM measured after 72 hrs in presence of 0.2 uM of vorinostat by CellTiterGlo assay. The format is functional. Conditions: read-out: GI.
The subject of series [17] is MV4-11. Nature of the series: Induction of apoptosis in human MV4-11 cells assessed as early apoptotic cells at 400 nM incubated for 72 hrs in presence of vorinostat by Annexin V/PI staining based flow cytometry analysis (reference value: 0.76 %). The format is functional.
Series [18] relates to MV4-11. Nature of the series: Antiproliferative activity against human MV4-11 cells assessed as growth inhibition at 0.1 uM measured after 72 hrs in presence of 0.4 uM of vorinostat by CellTiterGlo assay. Type of series: functional. As to conditions: read-out: GI.
Series [19] deals with MV4-11. Nature of the series: Induction of apoptosis in human MV4-11 cells assessed as viable cells at 600 nM incubated for 72 hrs in presence of vorinostat by Annexin V/PI staining based flow cytometry analysis (reference value: 96.68%). Conditions: read-out: Activity. The format is functional.
Series [20] has as its system MV4-11. Nature of the series: Antiproliferative activity against human MV4-11 cells assessed as growth inhibition at 0.5 uM measured after 72 hrs in presence of 1 uM of vorinostat by CellTiterGlo assay. As to conditions: read-out: GI. Type of series: functional.
The test system of series [21] is MV4-11. Nature of the series: Antiproliferative activity against human MV4-11 cells assessed as growth inhibition at 0.5 uM measured after 72 hrs in presence of 0.5 uM of vorinostat by CellTiterGlo assay. Type of series: functional. As to conditions: read-out: GI.
Series [22] in a line: Toxicity in mouse implanted in human MV4-11 cells assessed as liver damage at 10 to 30 mg/kg, ip administered daily for 17 days by H and E staining based analysis. The format is organism-based. Conditions: in vivo, 408 h, dose 10-30 mg/kg, time 17 day.
Series [23] in a line: Toxicity in mouse implanted in human MV4-11 cells assessed as spleen damage at 10 to 30 mg/kg, ip administered daily for 17 days by H and E staining based analysis. As to conditions: in vivo, 408 h, dose 10-30 mg/kg, time 17 day. The format is organism-based.
In series [24] the test system is MV4-11. Nature of the series: Antitumor activity against human MV4-11 cells xenografted in mouse assessed as tumor growth inhibition at 30 mg/kg, ip administered daily for 17 days. The format is functional. Conditions: MV4-11, 408 h, time 17 day, read-out: TGI.
Series [25] deals with MV4-11. As to the kind of experiment: Induction of apoptosis in human MV4-11 cells assessed as viable cells at 100 nmol/L incubated for 72 hrs by Annexin V/PI staining based flow cytometry analysis (reference value: 90.23%). The format is functional. Conditions: read-out: Activity.
Series [26] deals with Histone-lysine N-methyltransferase 2A (Homo sapiens, UniProt Q03164). Nature of the series: Inhibition of MLL1 (unknown origin) by fluorescence based assay.
In a further series the target is Histone deacetylase 3 (Homo sapiens, UniProt O15379). As to the kind of experiment: Inhibition of HDAC3 (unknown origin) by fluorescence based assay.
Series [27] concerns MV4-11. Nature of the series: cells. The format is functional, cell-based. As to conditions: Homo sapiens, MV4-11, 72 h.
Description: Antiproliferative activity against human MV4-11 cells assessed as inhibition of cell growth measured after 72 hrs by CellTiterGlo assay
The target in a further series is T1, Histone deacetylase 8 (Homo sapiens, UniProt Q9BY41).
T1 sequence (Q9BY41 whole entry): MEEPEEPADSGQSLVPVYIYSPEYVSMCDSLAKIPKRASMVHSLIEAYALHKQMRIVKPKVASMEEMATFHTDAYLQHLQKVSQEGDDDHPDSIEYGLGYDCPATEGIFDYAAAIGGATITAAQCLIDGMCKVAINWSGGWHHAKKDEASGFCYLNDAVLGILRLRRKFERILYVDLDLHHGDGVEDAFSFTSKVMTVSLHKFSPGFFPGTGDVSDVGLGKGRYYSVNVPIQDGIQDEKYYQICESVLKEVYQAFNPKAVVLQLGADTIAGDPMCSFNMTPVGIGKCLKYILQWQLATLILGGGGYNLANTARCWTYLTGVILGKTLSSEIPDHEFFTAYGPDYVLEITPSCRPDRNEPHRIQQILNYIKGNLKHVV
As to the kind of experiment: Inhibition of HDAC8 (unknown origin) by fluorescence based assay.

Series [28] relates to MV4-11. As to the kind of experiment: Induction of apoptosis in human MV4-11 cells assessed as early apoptotic cells at 100 nmol/L incubated for 72 hrs by Annexin V/PI staining based flow cytometry analysis (reference value: 4.17 %). Type of series: functional.
For series [29], the system named is MV4-11. As to the kind of experiment: Antitumor activity against human MV4-11 cells xenografted in mouse assessed as tumor growth inhibition at 10 mg/kg, ip administered daily for 17 days. Type of series: functional. Conditions: MV4-11, 408 h, time 17 day, read-out: TGI.

SMILES strings stand for the structures.

Sequence of Histone-lysine N-methyltransferase 2A (Q03164 1-2718 limits assumed): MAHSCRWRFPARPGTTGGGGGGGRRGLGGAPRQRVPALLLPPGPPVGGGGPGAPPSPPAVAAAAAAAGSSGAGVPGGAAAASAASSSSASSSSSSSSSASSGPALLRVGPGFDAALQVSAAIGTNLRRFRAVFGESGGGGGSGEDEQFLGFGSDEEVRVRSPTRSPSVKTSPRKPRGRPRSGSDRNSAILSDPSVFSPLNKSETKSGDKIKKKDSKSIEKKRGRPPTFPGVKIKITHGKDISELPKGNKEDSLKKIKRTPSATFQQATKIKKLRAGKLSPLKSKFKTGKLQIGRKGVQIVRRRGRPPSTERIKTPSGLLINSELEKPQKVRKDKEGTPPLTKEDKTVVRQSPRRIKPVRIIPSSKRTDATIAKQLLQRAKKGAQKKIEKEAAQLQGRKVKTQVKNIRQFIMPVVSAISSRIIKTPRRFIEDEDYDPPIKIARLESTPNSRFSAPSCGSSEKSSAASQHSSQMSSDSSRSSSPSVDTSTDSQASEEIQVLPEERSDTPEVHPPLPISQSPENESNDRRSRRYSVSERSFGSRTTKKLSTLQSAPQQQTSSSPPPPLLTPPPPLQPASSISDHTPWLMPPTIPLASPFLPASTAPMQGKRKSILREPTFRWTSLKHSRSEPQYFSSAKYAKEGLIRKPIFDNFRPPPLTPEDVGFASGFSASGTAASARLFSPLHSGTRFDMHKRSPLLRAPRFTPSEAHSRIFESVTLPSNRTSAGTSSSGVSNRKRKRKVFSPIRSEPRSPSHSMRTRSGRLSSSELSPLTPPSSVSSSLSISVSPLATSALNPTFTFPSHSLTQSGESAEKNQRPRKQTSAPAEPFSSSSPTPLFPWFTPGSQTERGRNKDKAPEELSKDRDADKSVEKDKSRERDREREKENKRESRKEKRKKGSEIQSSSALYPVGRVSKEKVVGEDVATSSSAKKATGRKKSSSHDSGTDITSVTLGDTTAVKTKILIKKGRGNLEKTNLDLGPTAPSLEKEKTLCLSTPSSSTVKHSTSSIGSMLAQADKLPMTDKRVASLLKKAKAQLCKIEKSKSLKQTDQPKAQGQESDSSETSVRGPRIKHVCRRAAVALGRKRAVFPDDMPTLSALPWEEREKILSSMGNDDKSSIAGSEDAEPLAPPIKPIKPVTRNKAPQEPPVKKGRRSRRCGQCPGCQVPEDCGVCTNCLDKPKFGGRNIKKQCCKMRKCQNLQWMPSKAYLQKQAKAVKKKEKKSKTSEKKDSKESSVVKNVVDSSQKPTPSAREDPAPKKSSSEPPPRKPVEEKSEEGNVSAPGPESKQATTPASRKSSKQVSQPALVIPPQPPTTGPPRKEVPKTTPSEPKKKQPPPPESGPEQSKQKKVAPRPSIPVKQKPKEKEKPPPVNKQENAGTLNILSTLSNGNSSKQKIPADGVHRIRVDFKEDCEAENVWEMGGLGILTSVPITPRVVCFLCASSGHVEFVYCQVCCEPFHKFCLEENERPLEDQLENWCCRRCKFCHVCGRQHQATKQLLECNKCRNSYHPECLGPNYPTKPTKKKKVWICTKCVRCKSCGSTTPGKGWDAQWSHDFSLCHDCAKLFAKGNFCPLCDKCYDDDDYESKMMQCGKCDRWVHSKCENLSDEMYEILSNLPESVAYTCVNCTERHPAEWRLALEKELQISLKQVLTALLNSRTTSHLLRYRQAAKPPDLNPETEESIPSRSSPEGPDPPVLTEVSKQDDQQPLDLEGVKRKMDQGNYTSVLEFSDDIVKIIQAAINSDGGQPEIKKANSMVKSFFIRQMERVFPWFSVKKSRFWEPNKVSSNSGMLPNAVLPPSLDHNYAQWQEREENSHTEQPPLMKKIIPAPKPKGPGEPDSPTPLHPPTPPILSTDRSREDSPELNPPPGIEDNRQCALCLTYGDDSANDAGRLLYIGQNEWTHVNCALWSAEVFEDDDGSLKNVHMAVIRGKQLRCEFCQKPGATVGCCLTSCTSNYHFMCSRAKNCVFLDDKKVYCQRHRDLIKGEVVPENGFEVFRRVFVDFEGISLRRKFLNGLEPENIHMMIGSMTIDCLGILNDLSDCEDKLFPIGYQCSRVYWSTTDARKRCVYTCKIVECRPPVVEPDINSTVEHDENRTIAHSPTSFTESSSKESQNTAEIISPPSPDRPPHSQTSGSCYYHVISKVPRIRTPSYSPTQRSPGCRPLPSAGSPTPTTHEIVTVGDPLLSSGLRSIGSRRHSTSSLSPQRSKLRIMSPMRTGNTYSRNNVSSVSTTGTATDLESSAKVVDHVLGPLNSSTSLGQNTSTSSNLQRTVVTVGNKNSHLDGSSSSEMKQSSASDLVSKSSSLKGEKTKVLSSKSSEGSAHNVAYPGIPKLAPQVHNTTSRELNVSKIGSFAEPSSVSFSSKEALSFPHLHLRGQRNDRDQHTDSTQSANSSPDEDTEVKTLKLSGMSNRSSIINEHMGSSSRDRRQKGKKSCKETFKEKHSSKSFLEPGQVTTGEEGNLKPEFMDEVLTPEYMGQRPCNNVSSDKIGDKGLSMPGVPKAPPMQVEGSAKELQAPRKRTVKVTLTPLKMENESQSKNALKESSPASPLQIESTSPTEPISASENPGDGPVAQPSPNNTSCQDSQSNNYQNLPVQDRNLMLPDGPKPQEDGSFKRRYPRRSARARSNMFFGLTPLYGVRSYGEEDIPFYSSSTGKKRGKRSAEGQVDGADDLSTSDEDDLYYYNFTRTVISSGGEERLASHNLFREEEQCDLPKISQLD
Sequence of Histone-lysine N-methyltransferase 2A (Q03164 2719-3969 limits assumed): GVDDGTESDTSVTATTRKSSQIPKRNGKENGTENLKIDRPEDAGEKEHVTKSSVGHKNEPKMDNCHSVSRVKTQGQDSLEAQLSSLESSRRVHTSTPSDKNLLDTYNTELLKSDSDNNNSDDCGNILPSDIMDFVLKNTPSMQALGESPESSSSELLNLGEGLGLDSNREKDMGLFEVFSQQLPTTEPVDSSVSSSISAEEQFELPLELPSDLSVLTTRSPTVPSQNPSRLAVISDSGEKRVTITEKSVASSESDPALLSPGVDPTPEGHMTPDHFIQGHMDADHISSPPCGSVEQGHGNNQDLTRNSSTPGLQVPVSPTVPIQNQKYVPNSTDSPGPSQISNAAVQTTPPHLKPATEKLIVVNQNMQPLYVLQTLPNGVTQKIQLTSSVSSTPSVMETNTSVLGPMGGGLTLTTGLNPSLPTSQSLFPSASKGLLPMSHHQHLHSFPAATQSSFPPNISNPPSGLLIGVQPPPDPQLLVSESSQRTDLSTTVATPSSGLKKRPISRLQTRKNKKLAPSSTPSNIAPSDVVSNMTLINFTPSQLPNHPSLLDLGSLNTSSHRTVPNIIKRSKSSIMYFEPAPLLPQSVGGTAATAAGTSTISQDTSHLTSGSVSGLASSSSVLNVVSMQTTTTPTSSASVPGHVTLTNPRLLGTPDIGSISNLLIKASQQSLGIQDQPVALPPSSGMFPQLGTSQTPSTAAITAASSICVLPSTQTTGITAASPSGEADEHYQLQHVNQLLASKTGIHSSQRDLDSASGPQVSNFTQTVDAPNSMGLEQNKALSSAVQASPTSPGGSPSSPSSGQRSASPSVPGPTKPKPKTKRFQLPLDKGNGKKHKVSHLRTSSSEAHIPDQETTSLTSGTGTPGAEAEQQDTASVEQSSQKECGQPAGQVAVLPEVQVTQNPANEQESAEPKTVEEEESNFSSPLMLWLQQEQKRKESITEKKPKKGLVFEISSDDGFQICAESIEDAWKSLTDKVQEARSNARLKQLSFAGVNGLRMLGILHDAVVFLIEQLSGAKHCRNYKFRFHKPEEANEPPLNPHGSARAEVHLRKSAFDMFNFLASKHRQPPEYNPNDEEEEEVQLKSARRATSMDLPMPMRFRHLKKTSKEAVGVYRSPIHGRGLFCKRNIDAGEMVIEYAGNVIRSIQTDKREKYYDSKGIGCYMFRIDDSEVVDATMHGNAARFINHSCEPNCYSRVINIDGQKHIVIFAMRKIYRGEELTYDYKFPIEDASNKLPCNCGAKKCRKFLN
Sequence of Histone deacetylase 3 (O15379 whole entry): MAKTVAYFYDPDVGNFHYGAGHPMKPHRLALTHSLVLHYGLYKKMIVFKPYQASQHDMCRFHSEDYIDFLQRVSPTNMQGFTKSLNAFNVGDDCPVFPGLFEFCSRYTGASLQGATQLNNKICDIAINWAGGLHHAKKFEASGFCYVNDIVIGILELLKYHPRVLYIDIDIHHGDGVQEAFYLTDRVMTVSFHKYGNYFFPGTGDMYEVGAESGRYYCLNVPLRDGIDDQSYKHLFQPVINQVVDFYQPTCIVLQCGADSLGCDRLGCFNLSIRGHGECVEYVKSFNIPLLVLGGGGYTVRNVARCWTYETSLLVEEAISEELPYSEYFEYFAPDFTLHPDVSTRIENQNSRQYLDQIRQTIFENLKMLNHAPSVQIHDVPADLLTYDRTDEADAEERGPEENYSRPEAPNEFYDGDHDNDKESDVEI

In the case of `Cc1c(F)c(N)cc(C(=O)Nc2cc(-c3ccc(C(=O)N4CCOCC4)cc3)ccc2N2CCN(C)CC2)c1Cl`, the inhibition of growth at 0.2 µM worked out at 23.9% in the series on MV4-11 [1] and 48% in the series with MV4-11 [8]. In addition, the Activity worked out at 7.36% in the series with MV4-11 [2]; 1.55% in the series with MV4-11 [4]; 0.58% in the series on MV4-11 [5]; 3.51% in the series on MV4-11 [15]; 54.05% in the series on MV4-11 [17]. The inhibition of growth at 2 µM with MV4-11 [3] was 89.4%. The inhibition of growth at 1 µM amounted to 77.1% in the series on MV4-11 [6], 94.9% with MV4-11 [10], 61.6% with MV4-11 [13] and 52.1% in the series with MV4-11 [14]. The inhibition of growth at 0.1 µM in the series with MV4-11 [7] turned out to be 34.4%; with MV4-11 [18] it was 59%. Besides, in the series with MV4-11 [9], the viability at 0.2 µM turned out to be 88.5%. Besides, the inhibition of growth at 0.4 µM was 40% with MV4-11 [11] and 59.3% in the series on MV4-11 [12]. Moreover, the values for the inhibition of growth at 0.5 µM in the series on MV4-11 [16], with MV4-11 [20] and with MV4-11 [21] were 58.9%, 91.1% and 73.2%, respectively. In the series with MV4-11 [19], the viability at 0.6 µM was 9.67%.

Take `Cc1c(F)c(N)cc(C(=O)Nc2cc(-c3ccc(C(=O)NCc4ccc(/C=C/C(=O)NO)cc4)cc3)ccc2N2CCN(C)CC2)c1Cl`: the Activity result in series [22] was “Non-toxic”; in [23], “Non-toxic”; with MV4-11 [2], 53.31%; with MV4-11 [5], 0.41%; in the series with MV4-11 [15], 6.01%; in the series on MV4-11 [28], 19.42%. The inhibition in vivo at 30 mg/kg with MV4-11 [24] amounted to 87.1%. Further, in the series with MV4-11 [25], the viability at 0.1 µM worked out at 71.5%. Moreover, the IC50 stood at 131 nM in [26], 296 nM against Histone deacetylase 3, 65 nM in the series with MV4-11 [27] and 5300 nM against Histone deacetylase 8. In addition, in the series with MV4-11 [9], the viability at 0.2 µM came to 40.3%. For the same compound, in the series with MV4-11 [29], the inhibition in vivo at 10 mg/kg was 42.3%.
